Assays:
[1] = system: ORYSAT (Rice, Tebonnet); experiment: Flooded paddy, post-transplant rice tolerance; assay type: in vivo, Oryza sativa, (L.) Tebonnet; settings: flooded paddy, post-transplant rice, rated 3-4 weeks after treatment, 0-9 rating scale
How it was run: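 Visual 0–9 injury rating against a control, covering stand, vigor, malformation, size, chlorosis and overall appearance. Treatment was post-transplant onto flooded containers (water 1.5–3 cm deep, silt loam) holding two ten-day-old cv. Tebonnet seedlings, maintained on greenhouse benches.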

[2] = system: SETVI (Setaria viridis); experiment: Preemergence herbicidal evaluation; assay type: in vivo, (L.) Beau; settings: rated 4-5 weeks after treatment
How it was run: (§1)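 Applied before emergence as an aqueous acetone spray over seeded soil. Read-out: 0–9 visual rating covering plant stand, vigor, size, chlorosis, malformation and overall appearance compared with control, taken 4–5 weeks after spraying.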

[3] = system: ECHCG (Echinochloa crus-galli); experiment: Preemergence herbicidal evaluation; assay type: in vivo, (L.) Beau; settings: rated 4-5 weeks after treatment
How it was run: as §1

[4] = system: IPOHE (Ipomoea hederacea); experiment: Postemergence herbicidal evaluation; assay type: in vivo, (L.) Jacq.
How it was run: (§2)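 Seedlings grown about two weeks in flats, sprayed, then kept under standard greenhouse care. Rated visually 4–5 weeks after treatment on a 0–9 scale (stand, vigour, malformation, size, chlorosis, overall appearance) relative to untreated control; repeat tests averaged.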

[5] = system: CHEAL (Chenopodium album); experiment: Preemergence herbicidal evaluation; assay type: in vivo, L.; settings: rated 4-5 weeks after treatment
How it was run: as §1

[6] = system: AMBEL (Ambrosia artemisifolia); experiment: Preemergence herbicidal evaluation; assay type: in vivo, L.; settings: rated 4-5 weeks after treatment
How it was run: as §1

[7] = system: CASOB (Cassia obtusifolia); experiment: Preemergence herbicidal evaluation; assay type: in vivo, L.; settings: rated 4-5 weeks after treatment
How it was run: as §1

[8] = system: GALAP (Galium aparine); experiment: Postemergence herbicidal evaluation; assay type: in vivo
How it was run: as §2

[9] = system: ORYSAT (Rice, Tebonnet); experiment: Postemergence herbicidal evaluation; assay type: in vivo, Oryza sativa, (L.) Tebonnet
How it was run: as §2

[10] = system: ORYSAT (Rice, Tebonnet); experiment: Preemergence herbicidal evaluation; assay type: in vivo, Oryza sativa, (L.) Tebonnet; settings: rated 4-5 weeks after treatment
[11] = system: IPOHE (Ipomoea hederacea); experiment: Preemergence herbicidal evaluation; assay type: in vivo, (L.) Jacq.; settings: rated 4-5 weeks after treatment
[12] = system: ABUTH (Abutilon theophrasti); experiment: Postemergence herbicidal evaluation; assay type: in vivo, Medic.
How it was run: as §2

[13] = system: ECHCG (Echinochloa crus-galli); experiment: Postemergence herbicidal evaluation; assay type: in vivo, (L.) Beau
How it was run: as §2

[14] = system: GLXMAW (Soybean, Williams); experiment: Postemergence herbicidal evaluation; assay type: in vivo, Glycine max, (L.) Merr. cv Williams
How it was run: as §2

[15] = system: MOOVA (Monochoria vaginalis); experiment: Flooded paddy, preemergence weed control; assay type: in vivo, Presl.; settings: rated 3-4 weeks after treatment, 0-9 rating scale
How it was run: (§3)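 Seeds or propagating organs were sown in the top 0.5 cm of silt loam soil, flooded, and the water kept 1.5 to 3 cm above the soil surface throughout. Plants were grown in the greenhouse and rated visually on a 0-9 scale against a control.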

[16] = system: SAGPY (Sagittaria pygmaea); experiment: Flooded paddy, preemergence weed control; assay type: in vivo, L.; settings: rated 3-4 weeks after treatment, 0-9 rating scale
How it was run: as §3

[17] = system: ZEAMX (Corn, Field); experiment: Postemergence herbicidal evaluation; assay type: in vivo, Zea mays, L.
How it was run: as §2

[18] = system: ECHORC (Echinochloa oryzoides); experiment: Flooded paddy, preemergence weed control; assay type: in vivo, Echinochloa oryzoides (Ard.) Fritsch.; settings: rated 3-4 weeks after treatment, 0-9 rating scale
How it was run: as §3

[19] = system: CYPIR (Cyperus iria); experiment: Flooded paddy, preemergence weed control; assay type: in vivo; settings: rated 3-4 weeks after treatment, 0-9 rating scale
How it was run: as §3

[20] = system: SETVI (Setaria viridis); experiment: Postemergence herbicidal evaluation; assay type: in vivo, (L.) Beau
How it was run: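 Seedlings grown about two weeks were sprayed with compound in 50/50 acetone/water containing 0.5% TWEEN 20, at about 0.0040 to 1.000 kg/ha via nozzle at 40 psi. Plants were kept under greenhouse conditions and visually rated on a 0-9 scale versus control four to five weeks after treatment; replicate tests averaged.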

Cc1cccnc1-c1nsc2cc(F)c(N3C(=O)C4=C(CCCC4)C3=O)cc12 [Compound 46, N-[6-fluoro-3-(3-methyl-2-pyridyl)-1,2-benzisothiazol-5-yl]-1-cyclohexene-1,2-dicarboximide]
3.0: herbicidal rating, ORYSAT (rice tolerance) ([1]; rate 0.1250 kg/ha) | Preemergence herbicidal rating CASOB ([7]; Rate 0.2500 kg/ha) | herbicidal rating, CYPIR ([19]; rate 0.1250 kg/ha) | Postemergence herbicidal rating, SETVI ([20]; rate 0.0320 kg/ha)
5.0: Preemergence herbicidal rating ECHCG ([3]; Rate 0.1250 kg/ha) | Postemergence herbicidal rating, GALAP ([8]; rate 0.1250 kg/ha) | herbicidal rating, ECHORC ([18]; rate 0.0320 kg/ha)
7.0: Preemergence herbicidal rating CHEAL ([5]; Rate 0.0620 kg/ha) | herbicidal rating, MOOVA ([15]; rate 0.0320 kg/ha) | herbicidal rating, MOOVA ([15]; rate 0.1250 kg/ha) | herbicidal rating, ECHORC ([18]; rate 0.1250 kg/ha)
0.0: Preemergence herbicidal rating ORYSAT ([10]; Rate 0.1250 kg/ha) | Preemergence herbicidal rating IPOHE ([11]; Rate 0.0620 kg/ha) | herbicidal rating, SAGPY ([16]; rate 0.0320 kg/ha)
4.0: Postemergence herbicidal rating, GALAP ([8]; rate 0.0320 kg/ha) | Postemergence herbicidal rating, ORYSAT ([9]; rate 0.0320 kg/ha) | Preemergence herbicidal rating ORYSAT ([10]; Rate 0.2500 kg/ha) | Postemergence herbicidal rating, ECHCG ([13]; rate 0.1250 kg/ha) | Postemergence herbicidal rating, SETVI ([20]; rate 0.0620 kg/ha)
2.0: herbicidal rating, ORYSAT (rice tolerance) ([1]; rate 0.0320 kg/ha) | Preemergence herbicidal rating IPOHE ([11]; Rate 0.1250 kg/ha) | Postemergence herbicidal rating, ECHCG ([13]; rate 0.0320 kg/ha) | Postemergence herbicidal rating, ECHCG ([13]; rate 0.0620 kg/ha) | herbicidal rating, SAGPY ([16]; rate 0.1250 kg/ha)
7.5: Postemergence herbicidal rating, GLXMAW ([14]; rate 0.0620 kg/ha) | Postemergence herbicidal rating, GLXMAW ([14]; rate 0.1250 kg/ha)
5.5: Postemergence herbicidal rating, ZEAMX ([17]; rate 0.1250 kg/ha)
9.0: Preemergence herbicidal rating SETVI ([2]; Rate 0.0620 kg/ha) | Preemergence herbicidal rating SETVI ([2]; Rate 0.1250 kg/ha) | Preemergence herbicidal rating SETVI ([2]; Rate 0.2500 kg/ha) | Postemergence herbicidal rating, IPOHE ([4]; rate 0.0320 kg/ha) | Postemergence herbicidal rating, IPOHE ([4]; rate 0.0620 kg/ha) | Postemergence herbicidal rating, IPOHE ([4]; rate 0.1250 kg/ha) | Preemergence herbicidal rating CHEAL ([5]; Rate 0.1250 kg/ha) | Preemergence herbicidal rating CHEAL ([5]; Rate 0.2500 kg/ha) | Preemergence herbicidal rating AMBEL ([6]; Rate 0.2500 kg/ha) | Preemergence herbicidal rating IPOHE ([11]; Rate 0.2500 kg/ha) | Postemergence herbicidal rating, ABUTH ([12]; rate 0.0320 kg/ha) | Postemergence herbicidal rating, ABUTH ([12]; rate 0.0620 kg/ha) | Postemergence herbicidal rating, ABUTH ([12]; rate 0.1250 kg/ha) | Postemergence herbicidal rating, SETVI ([20]; rate 0.1250 kg/ha)
3.5: Postemergence herbicidal rating, ORYSAT ([9]; rate 0.0620 kg/ha)
1.0: Preemergence herbicidal rating ECHCG ([3]; Rate 0.0620 kg/ha) | Preemergence herbicidal rating AMBEL ([6]; Rate 0.0620 kg/ha) | Preemergence herbicidal rating CASOB ([7]; Rate 0.0620 kg/ha) | Preemergence herbicidal rating CASOB ([7]; Rate 0.1250 kg/ha) | Preemergence herbicidal rating ORYSAT ([10]; Rate 0.0620 kg/ha) | herbicidal rating, CYPIR ([19]; rate 0.0320 kg/ha)
4.5: Postemergence herbicidal rating, ORYSAT ([9]; rate 0.1250 kg/ha) | Postemergence herbicidal rating, ZEAMX ([17]; rate 0.0320 kg/ha) | Postemergence herbicidal rating, ZEAMX ([17]; rate 0.0620 kg/ha)
8.0: Preemergence herbicidal rating ECHCG ([3]; Rate 0.2500 kg/ha)
6.0: Preemergence herbicidal rating AMBEL ([6]; Rate 0.1250 kg/ha) | Postemergence herbicidal rating, GALAP ([8]; rate 0.0620 kg/ha) | Postemergence herbicidal rating, GLXMAW ([14]; rate 0.0320 kg/ha)
